System: α-glucosidase
Test: in vitro α-glucosidase inhibition test (pNPG substrate, OD 405 nm); combination index by Chou-Talalay method with CompuSyn
Format: biochemical, Saccharomyces cerevisiae
Conditions: single compound
Experimental: α-glucosidase (coming from Saccharomyces cerevisiae, Sigma);
an α-glucosidase solution with a concentration being 0.25 U/mL and a substrate p-nitrophenyl-α-D-glucopyranoside (pNPG) solution with a concentration being […] were prepared by using a PBS buffer solution (0.1 mol L−1 pH 6.8).
40 μL α-glucosidase solution was accurately removed, 100 μL of sample solution to be tested was added respectively, reacted for 10 min at 37° C., then 60 μL of substrate p-nitrophenyl-α-D-glucopyranoside (pNPG) solution was added, reacted for 15 min at 37° C., and an enzyme-linked analyzer measured at a wavelength of 405 nm.
First, daidzein, taxifolin, and 3-O-methyl quercetin were respectively prepared into 10 mg/mL mother solutions by using dimethyl sulfoxide (DMSO); and then a sample solution of the specific concentration of the daidzein, taxifolin, and 3-O-methyl quercetin and composition was prepared with PBS buffer solution.

COc1c(-c2ccc(O)c(O)c2)oc2cc(O)cc(O)c2c1=O [3-O-methyl quercetin, 3-O-Methyl Quercetin]
Inhibition rate (2 μg/mL): 46.23±1.2%
Inhibition rate (4 μg/mL): 53.52±3.2%
Inhibition rate (6 μg/mL): 61.72±3.5%

O=c1cc(-c2ccccc2)oc2cc(O)c(O)c(O)c12 [Baicalein]
Inhibition rate (10 μg/mL): 38.8 ± 3.3%

COc1ccc(-c2coc3cc(O)cc(O)c3c2=O)cc1 [Biochanin A]
Inhibition rate (0.7 μg/mL): 38.5 ± 2.1%

Oc1cc(O)c2cc(O)c(-c3ccc(O)c(O)c3)[o+]c2c1.[Cl-] [Cyanidin]
Inhibition rate (0.7 μg/mL): 47.5 ± 1.4%

O=c1c(-c2ccc(O)cc2)coc2cc(O)ccc12 [Daidzein]
Inhibition rate (8 μg/mL): 44.5±2.5%
Inhibition rate (10 μg/mL): 52.25±2.5%

Oc1cc(O)c2cc(O)c(-c3cc(O)c(O)c(O)c3)[o+]c2c1.[Cl-] [Delphinidin]
Inhibition rate (1 μg/mL): 50.2 ± 4.3%

O=C1c2c(O)cc(O)cc2OC(c2ccc(O)cc2O)C1O (stereo not shown) [Dihydromorin]
Inhibition rate (15 μg/mL): 25.7 ± 4.7%

O=C(O[C@@H]1Cc2c(O)cc(O)cc2O[C@@H]1c1cc(O)c(O)c(O)c1)c1cc(O)c(O)c(O)c1 [Epigallocatechin gallate]
Inhibition rate (0.06 μg/mL): 42.5 ± 3.5%

O=c1c(O)c(-c2ccc(O)c(O)c2)oc2cc(O)ccc12 [Fisetin]
Inhibition rate (6 μg/mL): 46.5 ± 2.3%

COc1ccc(-c2coc3cc(O)ccc3c2=O)cc1 [Formononetin]
Inhibition rate (20 μg/mL): 60.07 ± 5.3%

COc1cc(O)c2c(=O)cc(-c3ccc(O)cc3)oc2c1 [Genkwanin]
Inhibition rate (35 μg/mL): 70.12 ± 5.5%

COc1ccc(C2CC(=O)c3c(O)cc(O)cc3O2)cc1O (stereo not shown) [Hesperetin]
Inhibition rate (30 μg/mL): 45.2 ± 3.2%

O=C(/C=C/c1ccc(O)cc1)c1ccc(O)cc1O [Isoliquiritigenin]
Inhibition rate (4 μg/mL): 35.2 ± 2.5%

COc1ccc(-c2oc3cc(O)cc(O)c3c(=O)c2O)cc1 [Kaempferide]
Inhibition rate (5 μg/mL): 30.8 ± 1.3%

O=c1c(O)c(-c2ccc(O)cc2)oc2cc(O)cc(O)c12 [Kaempferol]
Inhibition rate (2.5 μg/mL): 40.83 ± 2.3%

O=c1cc(-c2ccc(O)c(O)c2)oc2cc(O)cc(O)c12 [Luteolin]
Inhibition rate (1 μg/mL): 45.5 ± 2.7%

O=c1c(O)c(-c2ccc(O)cc2O)oc2cc(O)cc(O)c12 [Morin]
Inhibition rate (1 μg/mL): 41.2 ± 2.7%

O=c1c(O)c(-c2cc(O)c(O)c(O)c2)oc2cc(O)cc(O)c12 [Myricetin]
Inhibition rate (1 μg/mL): 41.2 ± 1.5%

O=C(CCc1ccc(O)cc1)c1c(O)cc(O)cc1O [Phloretin]
Inhibition rate (8 μg/mL): 46.3 ± 2.7%

O=C1c2c(O)cc(O)cc2O[C@H](c2ccc(O)c(O)c2)[C@H]1O [Taxifolin]
Inhibition rate (25 μg/mL): 40.12±2.1%
Inhibition rate (30 μg/mL): 54.5±2.4%
Inhibition rate (50 μg/mL): 75.21±3.4%

Chrysin
Inhibition rate (100 μg/mL): 51.2 ± 5.5%

Herbacetin
Inhibition rate (2.5 μg/mL): 35.2 ± 1.2%

Vitexin
Inhibition rate (10 μg/mL): 29.2 ± 1.4%

From patent publication US11753388B2, “Composition for inhibiting alpha-glucosidase and application thereof” (ZHENGZHOU FRUIT RESEARCH INSTITUTE, CHINESE ACADEMY OF …, priority 2021, dated 2023)
